Test results as given in US20240309007A1, “CRYSTALLINE FORMS OF 3-{4-[(2R)-2-AMINOPROPOXY]PHENYL}-N-[(1R)- 1-(3-FLUOROPHENYL) ETHYL]IMIDAZO[1,2-B]PYRIDAZIN-6-AMINE AND SALTS THEREOF” (ANHEART THERAPEUTICS (HANGZHOU) CO., LTD., priority 2021, published 2024).
Entries after “also recorded” stand apart in the source; their conditions may differ.

Experiment: Dynamic Vapor Sorption (DVS), hygroscopicity
Assay type: physicochemical
Conditions: for hygroscopicity (in words): from DVS weight increase at 80% RH; for weight increase (DVS): at 80% RH, 25±1° C.
Experimental: Dynamic Vapor Sorption (DVS) was performed by using Intrinsic DVS (Surface Measurement Systems, UK). A sample was weighed in an amount of 20-30 mg and was placed in a sample chamber. The measurement was performed at DMDT mode when the temperature of the sample chamber was maintained at 25±1° C.

SMILES | crystalline form (XRPD) of the sample before and after the DVS test | hygroscopicity (in words) | weight increase (DVS)
C[C@@H](N)COc1ccc(-c2cnc3ccc(N[C@H](C)c4cccc(F)c4)nn23)cc1 [crystalline form A of Compound 1 free base] [3-{4-[(2R)-2-aminopropoxy]phenyl}-N-[(1R)-1-(3-fluorophenyl)ethyl]imidazo[1,2-b]pyridazin-6-amine] | did not change | almost no hygroscopicity; also recorded: very low or nearly no hygroscopicity | 
C[C@@H](N)COc1ccc(-c2cnc3ccc(N[C@H](C)c4cccc(F)c4)nn23)cc1 [crystalline form B of Compound 1 adipate, 3-{4-[(2R)-2-aminopropoxy]phenyl}-N-[(1R)-1-(3-fluorophenyl)ethyl]imidazo[1,2-b]pyridazin-6-amine] |  | has hygroscopicity | about 8.2%
C[C@@H](N)COc1ccc(-c2cnc3ccc(N[C@H](C)c4cccc(F)c4)nn23)cc1 [crystalline form B of Compound 1 free base] [3-{4-[(2R)-2-aminopropoxy]phenyl}-N-[(1R)-1-(3-fluorophenyl)ethyl]imidazo[1,2-b]pyridazin-6-amine] | changed | has hygroscopicity | 
C[C@@H](N)COc1ccc(-c2cnc3ccc(N[C@H](C)c4cccc(F)c4)nn23)cc1 [crystalline form C of Compound 1 adipate, 3-{4-[(2R)-2-aminopropoxy]phenyl}-N-[(1R)-1-(3-fluorophenyl)ethyl]imidazo[1,2-b]pyridazin-6-amine] |  | low hygroscopicity | about 1%
C[C@@H](N)COc1ccc(-c2cnc3ccc(N[C@H](C)c4cccc(F)c4)nn23)cc1 [crystalline form D of Compound 1 free base] [3-{4-[(2R)-2-aminopropoxy]phenyl}-N-[(1R)-1-(3-fluorophenyl)ethyl]imidazo[1,2-b]pyridazin-6-amine] | did not change | some hygroscopicity | 2.896%

Now from value to molecule:

crystalline form (XRPD) of the sample before and after the DVS test | hygroscopicity (in words) | weight increase (DVS) | SMILES
no crystalline form change | has hygroscopicity |  | C[C@@H](N)COc1ccc(-c2cnc3ccc(N[C@H](C)c4cccc(F)c4)nn23)cc1 [crystalline form C of Compound 1 free base] [3-{4-[(2R)-2-aminopropoxy]phenyl}-N-[(1R)-1-(3-fluorophenyl)ethyl]imidazo[1,2-b]pyridazin-6-amine]
 | low hygroscopicity |  | C[C@@H](N)COc1ccc(-c2cnc3ccc(N[C@H](C)c4cccc(F)c4)nn23)cc1 [crystalline form D of Compound 1 adipate, 3-{4-[(2R)-2-aminopropoxy]phenyl}-N-[(1R)-1-(3-fluorophenyl)ethyl]imidazo[1,2-b]pyridazin-6-amine]
